Data from patent US4647586A, “Pharmaceutical oil-in-water type micro-emulsion” (priority 1984, dated 1987).

Experiments:
[1] = test system: abnormal 3-legged gait (brewers yeast-inflamed paw); test: Reversal of abnormal 3-legged gait in rats (analgesic activity); assay type: in vivo, SD-strain male rats; settings: Rattus norvegicus, iv, read-out: ED50 (dose causing at least 50% reversal of gait score in 50% of the rats)
Experimental: (a) Experimental animals: SD-strain male rats (120-165 g).
(b) Test drugs: The same as in A-1 [Test 2].
A 40% suspension of dried brewers yeast in physiological saline was injected (0.25 ml/rat) subcutaneously into the planter surface of the left hind paw of each rat. Three hours later, the walking gait on a wire mesh platform was assessed for each rat.
0 = Normal gait in the presence of a severely
0.5 = As above, with intermittent mild limping.
1.0 = Constant limping, but continuous use of
1.5 = Limping with occasional 3-legged gait
2.0 = Continous 3-Legged gait and/or only the
Any rat not showing a gait score of 2 was eliminated from this test. Drugs and vehicles were then administered intravenously. Measurements of the gait were made at 1, 2, 3 and 4 hours after drug administration.

[2] = test system: Carrageenin-induced paw edema; test: Carrageenin-induced paw edema in rats [Test 1]; assay type: in vivo, Wistar strain male rats
Experimental: A-1: Effect of inhibiting carrageenin-induced paw edema
(a) Experimental animals: Wistar strain male rats (body weight 160-220 g), 7 per group.
As a control drug, an aqueous solution of sodium 4-biphenylylacetate was used.
The volume of the left hind paw of each rat was measured with a plethysmometer (supplied by Ugo Basile Company). A 1% carrageenin solution as an inflammation inducer was injected subcutaneously into the left hind paw of each rat to induce paw edema. The volume of the paw of the rat was measured before the administration of carrageenin and every hour after the administration up to 6 hours. […] The test drugs were intravenously administered 2 hours after the injection of carrageenin. The edema inhibition rate were calculated by the following equation. [formula]
Ec: the volume of edema of the control group to which only the solvent was administered at each time (average value)
Et: the volume of edema in the drug-administered group at each time (average value)

SMILES: O=C([O-])Cc1ccc(-c2ccccc2)cc1.[Na+]
- ED50 [1]: 7.1 mg/kg
- Edema inhibitory effect (inhibition rate, %) ([2]; 2.5 mg/kg i.v. as 4-biphenylylacetic acid, 2 hours after carrageenin (time of dosing)): 0%
- Edema inhibitory effect (inhibition rate, %) ([2]; 2.5 mg/kg i.v. as 4-biphenylylacetic acid, 3 hours after carrageenin): 8.4%
- Edema inhibitory effect (inhibition rate, %) ([2]; 2.5 mg/kg i.v. as 4-biphenylylacetic acid, 4 hours after carrageenin): 13.2%
- Edema inhibitory effect (inhibition rate, %) ([2]; 2.5 mg/kg i.v. as 4-biphenylylacetic acid, 5 hours after carrageenin): 17.1%
- Edema inhibitory effect (inhibition rate, %) ([2]; 2.5 mg/kg i.v. as 4-biphenylylacetic acid, 6 hours after carrageenin): 19.8%
- Edema inhibitory effect (inhibition rate, %) ([2]; 5.0 mg/kg i.v. as 4-biphenylylacetic acid, 2 hours after carrageenin (time of dosing)): 0%
- Edema inhibitory effect (inhibition rate, %) ([2]; 5.0 mg/kg i.v. as 4-biphenylylacetic acid, 3 hours after carrageenin): 9.5%
- Edema inhibitory effect (inhibition rate, %) ([2]; 5.0 mg/kg i.v. as 4-biphenylylacetic acid, 4 hours after carrageenin): 15.1%
- Edema inhibitory effect (inhibition rate, %) ([2]; 5.0 mg/kg i.v. as 4-biphenylylacetic acid, 5 hours after carrageenin): 17.4%
- Edema inhibitory effect (inhibition rate, %) ([2]; 5.0 mg/kg i.v. as 4-biphenylylacetic acid, 6 hours after carrageenin): 20.8%
- ED20 ([2]; Rattus norvegicus, iv, 2 h, read-out: ED20 (20% edema inhibitory effect)): 8.5 mg/kg
- Edema inhibitive effect versus the micro-emulsions ([2]; i.v.): less effect
